Where a name gives a salt, the structure may show the parent alone.
Experiments:
[1] = target: T1, T315I Abl kinase (SEQ ID NO:2) (Homo sapiens, UniProt P00519, T315I); assay: T315I Abl kinase assay (pyruvate kinase/lactate dehydrogenase coupled); settings: 1 h preincubation at 30° C., ATP 500 μM; read-out: Abl T315l Enzyme Assay, biochemical IC50
T1 construct: purchased deCode Genetics
T1 sequence (P00519 with tags, fused parts or gaps T315I): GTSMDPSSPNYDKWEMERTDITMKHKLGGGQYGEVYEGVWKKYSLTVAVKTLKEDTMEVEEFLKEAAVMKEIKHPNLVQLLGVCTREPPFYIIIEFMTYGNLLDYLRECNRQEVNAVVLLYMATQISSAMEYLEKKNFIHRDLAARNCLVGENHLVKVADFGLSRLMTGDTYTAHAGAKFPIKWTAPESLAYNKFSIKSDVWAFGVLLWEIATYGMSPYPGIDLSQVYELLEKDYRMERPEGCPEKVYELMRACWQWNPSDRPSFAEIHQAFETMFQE
Method: Abl Kinase (SEQ ID NO:2) Assay
Activity of T315I Abl kinase (SEQ ID NO:2) was determined by following the production of ADP from the kinase reaction through coupling with the pyruvate kinase/lactate dehydrogenase system (e.g., Schindler, et al. Science (2000) 289, 1938-1942). In this assay, the oxidation of NADH (thus the decrease at A340nm) was continuously monitored spectrophometrically. The reaction mixture (100 μl) contained Abl kinase (4.4 nM. […] Abl from deCode Genetics), peptide substrate (EAIYAAPFAKKK, 0.2 mM), MgCl2 (10 mM), pyruvate kinase (4 units), lactate dehydrogenase (0.7 units), phosphoenol pyruvate (1 mM), and NADH (0.28 mM) in 90 mM Tris buffer containing 0.2% octyl-glucoside and 1% DMSO, pH 7.5. Test compounds were incubated with T315I Abl (SEQ ID NO:2) and other reaction reagents at 30° C. for 1 h before ATP (500 μM) was added to start the reaction. The absorption at 340 nm was monitored continuously for 2 hours at 30° C. on Polarstar Optima plate reader (BMG). The reaction rate was calculated using the 1.0 to 2.0 h time frame. Percent inhibition was obtained by comparison of reaction rate with that of a control (i.e. with no test compound). IC50 values were calculated from a series of percent inhibition values determined at a range of inhibitor concentrations using software routines as implemented in the GraphPad Prism software package.

[2] = target: T2, C-Met kinase (SEQ ID NO:10) (Homo sapiens, UniProt P08581); assay: C-Met kinase assay (pyruvate kinase/lactate dehydrogenase coupled); settings: 0.5 h preincubation at 22° C., ATP 100 μM; read-out: c-Met Enzyme Assay, biochemical IC50
T2 construct: purchased Invitrogen PV3143
T2 sequence (P08581 with tags, fused parts or gaps): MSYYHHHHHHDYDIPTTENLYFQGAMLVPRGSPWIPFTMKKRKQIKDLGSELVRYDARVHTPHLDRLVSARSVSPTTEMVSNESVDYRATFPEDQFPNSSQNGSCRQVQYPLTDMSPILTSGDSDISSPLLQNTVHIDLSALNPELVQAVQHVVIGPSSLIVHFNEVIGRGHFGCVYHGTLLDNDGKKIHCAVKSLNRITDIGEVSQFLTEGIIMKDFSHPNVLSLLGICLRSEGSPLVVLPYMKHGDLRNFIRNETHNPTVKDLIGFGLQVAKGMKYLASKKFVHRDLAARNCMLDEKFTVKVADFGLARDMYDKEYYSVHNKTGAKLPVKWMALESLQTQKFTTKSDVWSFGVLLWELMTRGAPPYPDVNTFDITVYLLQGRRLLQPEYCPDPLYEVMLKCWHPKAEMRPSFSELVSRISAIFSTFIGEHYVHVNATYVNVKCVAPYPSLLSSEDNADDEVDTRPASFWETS
Method: C-Met Kinase (SEQ ID NO:10) Assay
Activity of C-Met kinase (SEQ ID NO:10) was determined by following the production of ADP from the kinase reaction through coupling with the pyruvate kinase/lactate dehydrogenase system (e.g., Schindler, et al. Science (2000) 289, 1938-1942). In this assay, the oxidation of NADH (thus the decrease at A340 nm) was continuously monitored spectrophometrically. The reaction mixture (100 μl) contained C-Met (c-Met residues; 956-1390, from Invitrogen, catalogue #PV3143, 6 nM), polyE4Y (1 mg/ml), MgCl2 (10 mM), pyruvate kinase (4 units), lactate dehydrogenase (0.7 units), phosphoenol pyruvate (1 mM), and NADH (0.28 mM) in 90 mM Tris buffer containing 0.25 mM DTT, 0.2% octyl-glucoside and 1% DMSO, pH 7.5. Test compounds were incubated with C-Met (SEQ ID NO:10) and other reaction reagents at 22° C. for 0.5 h before ATP (100 μM) was added to start the reaction. The absorption at 340 n=was monitored continuously for 2 hours at 30° C. on Polarstar Optima plate reader (BMG). The reaction rate was calculated using the 1.0 to 2.0 h time frame. Percent inhibition was obtained by comparison of reaction rate with that of a control (i.e. with no test compound). IC50 values were calculated from a series of percent inhibition values determined at a range of inhibitor concentrations using software routines as implemented in the GraphPad Prism software package.

[3] = target: T3, BaF3 cells transfected with wild type p210 BCR-Abl (Homo sapiens, UniProt P00519); assay: Ba/F3 p210 whole cell proliferation assay (Cell Titer Blue, 72 hours); type: cell-based; settings: 72 hours incubation; read-out: Ba/F3 p210 whole cell proliferation assay, antiproliferation IC50
T3 construct: fused on or other part: P11274 (Breakpoint cluster region protein)
Method: (§1) BaF3 cells (parental or transfected with the following: wild type p210 BCR-Abl and T315I p210 BCR-Abl was obtained from Professor Richard Van Etten (New England Medical Center, Boston, Mass.). Briefly, cells were grown in RPMI 1640 supplemented with 10% characterized fetal bovine serum (HyClone, Logan, Utah) at 37 degrees Celsius, 5% CO2, 95% humidity. Cells were allowed to expand until reaching 80% saturation at which point they were subcultured or harvested for assay use.
(§2) A serial dilution of test compound was dispensed into a 96 well black clear bottom plate (Corning, Corning, N.Y.). For each cell line, three thousand cells were added per well in complete growth medium. Plates were incubated for 72 hours at 37 degrees Celsius, 5% CO2, 95% humidity. At the end of the incubation period Cell Titer Blue (Promega, Madison, Wis.) was added to each well and an additional 4.5 hour incubation at 37 degrees Celsius, 5% CO2, 95% humidity was performed. Plates were then read on a BMG Fluostar Optima (BMG, Durham, N.C.) using an excitation of 544 nm and an emission of 612 nm. Data was analyzed using Prism software (Graphpad, San Diego, Calif.) to calculate IC50's.

[4] = target: T4, BaF3 cells transfected with T315I p210 BCR-Abl (Homo sapiens, UniProt P00519, T315I, cells depend on it); assay: Ba/F3 p210 T315I whole cell proliferation assay (Cell Titer Blue, 72 hours); type: cell-based; settings: 72 hours incubation; read-out: Ba/F3 p210 T315I whole cell proliferation assay, antiproliferation IC50
T4 construct: fused on or other part: P11274 (Breakpoint cluster region protein)
Method: as §1, §2

IC50 [1] [nM]	IC50 [2] [nM]	GI50 [3] [nM]	GI50 [4] [nM]	Structure (SMILES)
< 100	< 100	< 100	< 100	CC(C)c1cc(NC(=O)Nc2ccc(Oc3ccnc(-c4cnn(C)c4)c3)cc2F)n(-c2cccc(F)c2)n1 [Example 24, 1-(2-fluoro-4-(2-(1-methyl-1H-pyrazol-4-yl)pyridin-4-yloxy)phenyl)-3-(1-(3-fluorophenyl)-3-isopropyl-1H-pyrazol-5-yl)urea]
< 100	< 1000	< 100	< 100	CC(C)c1cc(NC(=O)Nc2ccc(Oc3ccnc(-c4cnn(C)c4)c3)cc2F)n(-c2ccc(F)c(C#N)c2)n1 [Example 5, 1-(1-(3-cyano-4-fluorophenyl)-3-isopropyl-1H-pyrazol-5-yl)-3-(2-fluoro-4-(2-(1-methyl-1H-pyrazol-4-yl)pyridin-4-yloxy)phenyl)urea]
< 100	< 1000	< 100	< 100	CC(C)n1cc(NC(=O)Nc2ccc(Oc3ccnc(-c4cnn(C)c4)c3)cc2F)c(-c2ccccc2)n1 [Example 21, 1-(2-fluoro-4-(2-(1-methyl-1H-pyrazol-4-yl)pyridin-4-yloxy)phenyl)-3-(1-isopropyl-3-phenyl-1H-pyrazol-4-yl)urea]
< 100	< 100	< 100	< 100	Cc1c(Oc2ccnc(-c3cnn(C)c3)c2)ccc(NC(=O)Nc2cc(C(C)C)nn2-c2cccc(C#N)c2)c1F [Example 12, 1-(1-(3-cyanophenyl)-3-isopropyl-1H-pyrazol-5-yl)-3-(2-fluoro-3-methyl-4-(2-(1-methyl-1H-pyrazol-4-yl)pyridin-4-yloxy)phenyl)urea]
< 100	< 100	< 100	< 100	Cn1cc(-c2cc(Oc3ccc(NC(=O)Nc4cc(C(C)(C)C)nn4-c4cccc(CO)c4)c(F)c3)ccn2)cn1 [Example 7, 1-(3-tert-butyl-1-(3-(hydroxymethyl)phenyl)-1H-pyrazol-5-yl)-3-(2-fluoro-4-(2-(1-methyl-1H-pyrazol-4-yl)pyridin-4-yloxy)phenyl)urea p-toluenesulfonic acid]
< 100	< 100	< 100	< 100	CC(C)c1cc(NC(=O)Nc2ccc(Oc3ccnc(-c4cnn(C)c4)c3)cc2F)n(-c2cccc(C#N)c2)n1 [Example 2, 1-(1-(3-cyanophenyl)-3-isopropyl-1H-pyrazol-5-yl)-3-(2-fluoro-4-(2-(1-methyl-1H-pyrazol-4-yl)pyridin-4-yloxy)phenyl)urea]
< 100	< 100	< 100	< 100	CC(C)c1cc(NC(=O)Nc2ccc(Oc3ccnc(-c4cnn(C)c4)c3)c(F)c2)n(-c2cccc(C#N)c2)n1 [Example 16, 1-(1-(3-cyanophenyl)-3-isopropyl-1H-pyrazol-5-yl)-3-(3-fluoro-4-(2-(1-methyl-1H-pyrazol-4-yl)pyridin-4-yloxy)phenyl)urea]
< 100	< 1000	< 100	< 100	CCc1cc(NC(=O)Nc2ccc(Oc3ccnc(-c4cnn(C(C)C)c4)c3)cc2F)n(-c2cccc(C#N)c2)n1 [Example 17, 1-(1-(3-cyanophenyl)-3-ethyl-1H-pyrazol-5-yl)-3-(2-fluoro-4-(2-(1-isopropyl-1H-pyrazol-4-yl)pyridin-4-yloxy)phenyl)urea]
< 100	< 100	< 100	< 100	CC(C)(C)c1cc(NC(=O)Nc2ccc(Oc3ccnc(-c4cn[nH]c4)c3)cc2F)n(-c2cccc(C#N)c2)n1 [Example 3, 1-(4-(2-(1H-pyrazol-4-yl)pyridin-4-yloxy)-2-fluorophenyl)-3-(3-tert-butyl-1-(3-cyanophenyl-1H-pyrazol-5-yl)urea hydrochloride]
